Source: publication PMC9862037, “Interactions of Mycotoxin Alternariol with Cytochrome P450 Enzymes and OATP Transporters” (Metabolites, 2022)

Legend:
CYP2C9 = target: T1, CYP2C9 (Homo sapiens, UniProt P11712); assay: biochemical
T1 construct: purchased Merck; host or cells: yeast (inferred from the description of the CYPnull control, 'processed identically')
Description: The potential inhibitory effects of AOH on CYP2C9, 2C19, 2D6, and 3A4 enzymes were tested in vitro employing CypExpress human kits, using the substrates recommended by the U.S. Food and Drug Administration (FDA; https://www.fda.gov/drugs/drug-interactions-labeling/drug-development-and-drug-interactions-table-substrates-inhibitors-and-inducers; accessed on 19 December 2022) (diclofenac, S-mephenytoin, dextromethorphan, and testosterone, respectively). […] In these assays, the substrates and products were quantified by HPLC-UV [28].
(§1) IC50 values were calculated by sigmoidal fitting (Hill1), using the Origin (version 2018, OriginLab Corporation, Northampton, MA, USA) software.
(§2) After CYP450 incubations, the product formation rate was investigated using an integrated HPLC system (Jasco, Tokyo, Japan) built up from an autosampler (AS-4050), a binary pump (PU-4180), and a UV detector (UV-975). Chromatographic data were evaluated employing ChromNAV2 software (Jasco, Tokyo, Japan). Quantitative determinations of 4′-hydroxydiclofenac and diclofenac (CYP2C9), 4-hydroxymephenytoin and mephenytoin (CYP2C19), dextromethorphan and dextrorphan (CYP2D6), as well as testosterone and 6β-hydroxytestosterone (CYP3A4) were carried out as previously reported, without modifications.

CYP2C19 = target: T2, CYP2C19 (Homo sapiens, UniProt P33261); type: biochemical
T2 construct: purchased Merck; host or cells: yeast (inferred from the description of the CYPnull control, 'processed identically')
T2 sequence (P33261 whole entry): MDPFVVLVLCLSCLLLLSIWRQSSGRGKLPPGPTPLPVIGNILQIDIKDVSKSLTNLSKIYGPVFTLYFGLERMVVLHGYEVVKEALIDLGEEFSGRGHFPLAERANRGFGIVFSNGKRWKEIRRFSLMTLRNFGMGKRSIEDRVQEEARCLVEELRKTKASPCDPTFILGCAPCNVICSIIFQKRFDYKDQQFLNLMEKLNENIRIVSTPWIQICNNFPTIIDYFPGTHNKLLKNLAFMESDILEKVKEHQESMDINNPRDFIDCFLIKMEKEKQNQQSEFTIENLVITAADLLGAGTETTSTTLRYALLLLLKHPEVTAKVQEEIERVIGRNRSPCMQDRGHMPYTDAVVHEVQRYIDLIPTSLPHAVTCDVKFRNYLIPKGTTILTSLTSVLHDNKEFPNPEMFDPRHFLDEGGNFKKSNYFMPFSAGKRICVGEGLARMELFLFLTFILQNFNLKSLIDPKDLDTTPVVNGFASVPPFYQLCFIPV
Description: (§3) The potential inhibitory effects of AOH on CYP2C9, 2C19, 2D6, and 3A4 enzymes were tested in vitro employing CypExpress human kits, using the substrates recommended by the U.S. Food and Drug Administration (FDA; https://www.fda.gov/drugs/drug-interactions-labeling/drug-development-and-drug-interactions-table-substrates-inhibitors-and-inducers; accessed on 19 December 2022) (diclofenac, S-mephenytoin, dextromethorphan, and testosterone, respectively). The impacts of increasing concentrations of AOH (0.00, 0.05, 0.50, 2.0, 5.0, 10, 25, 30, and 50 μM) were examined on diclofenac 4′-hydroxylation (CYP2C9), S-mephenytoin 4-hydroxylation (CYP2C19), dextromethorphan demethylation (CYP2D6), and testosterone 6β-hydroxylation (CYP3A4) as described previously, without modifications. In these assays, the substrates and products were quantified by HPLC-UV [28].
as §1, §2

CYP2D6 = target: T3, CYP2D6 (Homo sapiens, UniProt P10635); type: biochemical; settings: 50 μM AOH
T3 construct: purchased Merck; host or cells: yeast (inferred from the description of the CYPnull control, 'processed identically')
T3 sequence (P10635 whole entry): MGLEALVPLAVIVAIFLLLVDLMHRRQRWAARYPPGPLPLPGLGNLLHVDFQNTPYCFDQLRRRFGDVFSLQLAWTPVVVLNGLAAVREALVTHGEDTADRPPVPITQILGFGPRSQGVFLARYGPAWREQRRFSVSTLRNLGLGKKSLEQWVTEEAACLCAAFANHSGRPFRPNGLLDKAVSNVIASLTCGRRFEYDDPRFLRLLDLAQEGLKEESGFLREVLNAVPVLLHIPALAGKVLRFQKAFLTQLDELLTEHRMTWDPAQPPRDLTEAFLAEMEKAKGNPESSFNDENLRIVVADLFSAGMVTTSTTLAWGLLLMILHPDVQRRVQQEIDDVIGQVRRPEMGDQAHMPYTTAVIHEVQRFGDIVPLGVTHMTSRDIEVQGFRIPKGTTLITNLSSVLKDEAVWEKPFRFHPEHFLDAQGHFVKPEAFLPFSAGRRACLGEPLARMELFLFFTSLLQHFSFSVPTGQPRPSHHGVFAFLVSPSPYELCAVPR
Description: as §3, §1, §2

CYP3A4 = target: T4, CYP3A4 (Homo sapiens, UniProt P08684); type: biochemical; settings: plateau above 10 μM AOH
T4 construct: purchased Merck; host or cells: yeast (inferred from the description of the CYPnull control, 'processed identically')
T4 sequence (P08684 whole entry): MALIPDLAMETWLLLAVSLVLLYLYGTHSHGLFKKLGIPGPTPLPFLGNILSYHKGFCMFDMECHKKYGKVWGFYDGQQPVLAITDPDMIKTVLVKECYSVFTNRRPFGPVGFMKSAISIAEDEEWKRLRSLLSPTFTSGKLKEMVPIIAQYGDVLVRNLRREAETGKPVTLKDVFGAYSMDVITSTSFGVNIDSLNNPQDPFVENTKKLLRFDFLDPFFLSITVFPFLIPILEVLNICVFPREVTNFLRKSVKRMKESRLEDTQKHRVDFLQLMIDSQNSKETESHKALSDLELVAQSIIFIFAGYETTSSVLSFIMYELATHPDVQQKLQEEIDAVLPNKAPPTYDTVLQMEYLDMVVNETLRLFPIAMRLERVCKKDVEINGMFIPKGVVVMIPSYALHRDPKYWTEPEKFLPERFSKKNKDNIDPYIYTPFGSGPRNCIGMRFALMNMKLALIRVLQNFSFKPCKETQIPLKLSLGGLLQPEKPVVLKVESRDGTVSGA
Description: as §3, §1, §2

T1 sequence (P11712 whole entry): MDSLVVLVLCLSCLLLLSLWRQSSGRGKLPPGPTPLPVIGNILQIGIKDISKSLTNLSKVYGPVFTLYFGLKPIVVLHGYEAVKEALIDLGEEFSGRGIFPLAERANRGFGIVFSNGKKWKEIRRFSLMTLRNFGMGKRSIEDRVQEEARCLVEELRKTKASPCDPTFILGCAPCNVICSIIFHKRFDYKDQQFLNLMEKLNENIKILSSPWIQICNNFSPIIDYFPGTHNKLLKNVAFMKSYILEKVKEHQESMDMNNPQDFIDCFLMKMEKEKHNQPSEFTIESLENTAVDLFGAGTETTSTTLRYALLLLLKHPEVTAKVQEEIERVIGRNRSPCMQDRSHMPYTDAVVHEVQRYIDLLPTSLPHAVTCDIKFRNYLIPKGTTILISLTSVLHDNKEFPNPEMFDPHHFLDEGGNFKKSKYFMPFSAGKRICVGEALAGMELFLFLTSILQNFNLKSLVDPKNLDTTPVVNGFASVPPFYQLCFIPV

With Cc1cc(O)cc2oc(=O)c3c(O)cc(O)cc3c12 [AOH, Alternariol] the “decrease in the product formation (CYP2C9)” value (CYP2C9; 50 μM AOH) was over 80%, the IC50 (CYP2C9; diclofenac 4'-hydroxylation, read-out: IC50, CYP2C9 inhibition) was 7.4 µM and the “CYP2C19 inhibition at 5 μM” value (CYP2C19; 5 μM AOH, p < 0.01) was “significantly (p < 0.01) inhibited”. The “decrease in 4-hydroxymephenytoin production (CYP2C19)” value (CYP2C19; 50 μM AOH (highest concentration)) was 55%, the “effect on CYP2D6-catalyzed dextromethorphan demethylation” value (CYP2D6) was “not affected” and the “CYP3A4 inhibition (decrease in metabolite formation)” value (CYP3A4) was “approximately 40%”.
